Laboratory results: PMC10622577, “Structural basis for stabilisation of the RAD51 nucleoprotein filament by BRCA2” (Nature Communications, 2023)

Columns and labels:
RAD51 S181C = assay: RAD51–TR2 disulphide cross-linking, SDS-PAGE; parameters: species or system human; details: RAD51 S181C 10 μM, 0.5 μM ssDNA, 1.25 μM Cy3-TR2, 2 mM hydrogen peroxide 5 min; pH 7.5; non-reducing SDS-PAGE; repeated three times
Excerpt: To further validate our model of the RAD51–TR2 interaction, we mutated RAD51 S181 to a cysteine to enable disulphide formation with TR2 C3304, which would support its presence at the TR2-RAD51 interface, as identified in the structure.
Fig. 5 Structure-guided BRCA2 TR2 cross-linking to RAD51. A Drawing of the RAD51–TR2 interface, highlighting that amino acids BRCA2 C3304 and RAD51 S181 are spatially close, so that the RAD51 S181C mutant can form a disulphide bridge with C3304 in the TR2 peptide. B SDS-PAGE analysis of cross-linking reactions between RAD51 S181C and TR2 in the presence of hydrogen peroxide. Wild-type RAD51 and the reducing agent DTT were used as controls. Protein bands were visualised with Coomassie Blue. C Same experiment as in B, visualised with 532 nm excitation of the Cy3-labelled TR2 peptide. Experiment was repeated three times. Source data are provided as a Source Data file.
Cross-linking reactions were prepared in buffer: 25 mM HEPES pH 7.5, 150 mM NaCl, 2 mM ATP, 5 mM CaCl2, supplemented with 0.5 μM ssDNA. WT or S181C RAD51 was added to a final concentration of 10 μM and incubated for 15 minutes at room temperature. […] Each crosslinked sample was analysed by SDS-PAGE, using gel-loading dye with DTT (reducing) or without DTT (non-reducing), on a 12% Bis-Tris SDS-PAGE gel. […]

RAD51 D184A NPFs = assay: EMSA of TR2 titration on RAD51 D184A NPFs; assay type: binding, human
Procedure: To assess RAD51 nucleoprotein (NPF) formation, wild-type and mutant RAD51 proteins were incubated with DNA in buffer: 25 mM HEPES pH 7.5, 150 mM NaCl, 2 mM DTT, 2 mM ATP, 5 mM CaCl2 for 15 minutes at room temperature. For filament binding of the TR2 peptide or His6-MBP-TR2 protein, the RAD51 NPFs were incubated with TR2 for further 5 minutes at room temperature. For filament binding of BRC4, the BRC4 peptide was pre-mixed with RAD51 for 10 minutes at room temperature before addition of DNA. For experiments with mono-streptavidin (mSA)-capped DNA, mSA (Sigma) was added in 5× molar excess of biotin labels for 15 minutes at room temperature prior to the addition of RAD51. Concentrations are provided in figures and DNA sequences for each experiment are reported in Supplementary Table 1.
Before electrophoresis, samples were mixed with a 0.5:1 volume of 50% (w/v) sucrose solution and analysed on a pre-run 0.5% (w/v) agarose gel in 0.5× TB buffer at 35 V for 2.5 hours at 4 °C. DNA was visualised by excitation of the fluorescent tag or, in the case of unlabelled DNA, by SYBR Gold staining. Gels were imaged in a Typhoon FLA9000 by excitation at 473 nm for fluorescein-labelled DNA or SYBR Gold-stained gels, 532 nm excitation for Cy3-labelled DNA or 635 nm excitation for Cy5-labelled DNA.
Supplementary table 1. DNA oligos and peptides
Oligos Size (nt) Sequence (5’ – 3’)
D184A […] (forward), […]

DDQKNCKKRRALDFLSRLPLPPPVSPICTFVSPAAQKAFQPPRSCGTKY [TR2, BRCA2 TR2 peptide spanning amino acids 3260 to 3308]
formation of crosslinked RAD51–TR2 species (RAD51 S181C): readily detect formation of a crosslinked RAD51–TR2 species
reduction in TR2 binding, ssDNA versus dsDNA filaments (RAD51 D184A NPFs; EMSA, ssDNA compared with dsDNA): especially pronounced for filaments formed on ssDNA
TR2 binding relative to wild-type (RAD51 D184A NPFs; ss- and dsDNA, 25 mM HEPES pH 7.5, 150 mM NaCl, 2 mM ATP, 5 mM CaCl2, TR2 5 min, room temperature, ssDNA performed twice, dsDNA once): reduction in TR2 binding proportional to the decrease in charge at RAD51’s acidic patch
